Series [1] can be described thus: Competition with DMSO for hydroxyl radicals. The class given is biochemical. Particulars: compound 0.1 mM; 30 min, 37 °C, pH 7.4. The procedure: (§1) The antioxidant activity of complexes 1–3 was evaluated via their ability to scavenge the free radicals DPPH, hydroxyl, and ABTS. Each experiment was performed in triplicate and the standard deviation of absorbance was less than 10% of the mean.
Competition of the tested compounds with DMSO for hydroxyl radicals: The hydroxyl radicals generated by the Fe^3+/ascorbic acid system were detected according to Nash by the determination of formaldehyde produced from the oxidation of DMSO [155]. The reaction mixture contained EDTA (0.1 mM), Fe^3+ (167 μM), DMSO (33 mM) in phosphate buffer (50 mM, pH 7.4), complexes 1–3 (concentration 0.1 mM), and ascorbic acid (10 mM). After a 30-min incubation at 37 °C, the reaction was stopped with CCl3COOH (17% w/v) and the absorbance at λ = 412 nm was measured. Trolox was used as a reference compound. The competition of the compounds with DMSO for •OH, generated by the Fe^3+/ascorbic acid system, expressed as the percentage of inhibition of formaldehyde production, was used for the evaluation of their hydroxyl radical-scavenging activity (OH%).

A short description of series [2]: ABTS radical cation scavenging. Particulars: compound 0.1 mM; 1 min after mixing. The class given is biochemical. As for the experimental part:
as §1
Assay of radical cation scavenging activity (ABTS^+•): An ABTS cationic radical (ABTS^+•) was produced by reacting an aqueous stock solution (2 mM) of ABTS with 0.17-mM potassium persulfate and allowing the mixture to stand in the dark at room temperature for 12–16 h before use. […] Although the oxidation of ABTS commenced immediately, the absorbance became maximal and stable after 6 h. The radical was stable in this form for more than two days when stored in the dark at room temperature. The ABTS radical solution was diluted with ethanol to an absorbance of 0.70 at 734 nm. After the addition of 10 μL of complexes 1–3 or the standards (0.1 mM) in DMSO, the absorbance was recorded exactly 1 min after initial mixing. The radical scavenging activity of the complexes was expressed as the percentage inhibition of the absorbance of the initial ABTS solution (ABTS%). Trolox was used as a reference compound.

Series [3] deals with T1, bovine serum albumin (BSA) (Bos taurus, UniProt P02769).
T1 construct: purchased Sigma-Aldrich Co. (St. Louis, MO, USA)
Nature of the series: BSA fluorescence emission quenching (albumin binding). The settings on record: for ΔI/Io (%) quenching of BSA fluorescence: BSA 3 μM, λex 295 nm, λem 343 nm; for K albumin-binding constant (BSA): Scatchard equation; for Kq albumin-quenching constant (BSA): Stern–Volmer, τo = 10^−8 s; for relative BSA fluorescence emission intensity (I/Io, %) remaining: λem,max = 343 nm, up to, % of the initial BSA fluorescence. As for the experimental part: The albumin-binding study for complexes 1–3 was performed via fluorescence emission quenching experiments using BSA (3 μM) or HSA (3 μM), respectively, in a buffer solution (containing 15-mM trisodium citrate and […] at pH 7.0). The quenching of the emission intensity of tryptophan residues of BSA at 343 nm or HSA at 351 nm was monitored using complexes 1–3 as quenchers with increasing concentrations. The fluorescence emission spectra were recorded in the range of 300–500 nm, with an excitation wavelength of 295 nm. The quantitative studies of the serum albumin fluorescence spectra were performed after correction by subtracting the spectra of the compounds.
The extent of the inner-filter effect can be roughly estimated with the following formula:(2) Icorr=Imeas×10^ε(λexc)cd/2×10^ε(λem)cd/2 where Icorr = corrected intensity, Imeas = the measured intensity, c = the concentration of the quencher, d = the cuvette (1 cm), ε(λexc), and ε(λem) = the ε of the quencher at the excitation and the emission wavelength, respectively, as calculated from the UV-vis spectra of the complexes.
The Stern–Volmer and Scatchard graphs are used in order to study the interaction of a quencher with serum albumins. The Stern–Volmer quenching equation is used:(3) Io/I=1+Kq×τ0×[Q]=1+KSV×[Q] where Io = the initial tryptophan fluorescence intensity of SA, I = the tryptophan fluorescence intensity of SA after the addition of the quencher, Kq = the quenching constants of SA, KSV = the Stern–Volmer constant, τo = the average lifetime of SA without the quencher, and [Q] = the concentration of the quencher. The value of KSV (M^−1) can be obtained by the slope of the diagram Io/I versus [Q]. Taking τo = 10^−8 s as the fluorescence lifetime of tryptophan in SA, the value of Kq (M^−1s^−1) is calculated from the equation:(4) KSV=Kq×τo and from the Scatchard equation [130]:(5) ΔI/Io/[Q]=n×K−K×ΔI/Io where n is the number of binding sites per albumin and K is the SA-binding constant, K (in M^−1) is calculated from the slope in plots (ΔI/Io)/[Q] versus (ΔI/Io), and n is given by the ratio of y-intercept to the slope.

Series [4] can be described thus: Solubility of the complexes. The class given is physicochemical.

Consider 2 substances from publication PMC10094617, “Iron(III) Complexes with Non-Steroidal Anti-Inflammatory Drugs: Structure, Antioxidant and Anticholinergic Activity, and Interaction with Biomolecules” (International Journal of Molecular Sciences, 2023).

T1 sequence (P02769 25-607): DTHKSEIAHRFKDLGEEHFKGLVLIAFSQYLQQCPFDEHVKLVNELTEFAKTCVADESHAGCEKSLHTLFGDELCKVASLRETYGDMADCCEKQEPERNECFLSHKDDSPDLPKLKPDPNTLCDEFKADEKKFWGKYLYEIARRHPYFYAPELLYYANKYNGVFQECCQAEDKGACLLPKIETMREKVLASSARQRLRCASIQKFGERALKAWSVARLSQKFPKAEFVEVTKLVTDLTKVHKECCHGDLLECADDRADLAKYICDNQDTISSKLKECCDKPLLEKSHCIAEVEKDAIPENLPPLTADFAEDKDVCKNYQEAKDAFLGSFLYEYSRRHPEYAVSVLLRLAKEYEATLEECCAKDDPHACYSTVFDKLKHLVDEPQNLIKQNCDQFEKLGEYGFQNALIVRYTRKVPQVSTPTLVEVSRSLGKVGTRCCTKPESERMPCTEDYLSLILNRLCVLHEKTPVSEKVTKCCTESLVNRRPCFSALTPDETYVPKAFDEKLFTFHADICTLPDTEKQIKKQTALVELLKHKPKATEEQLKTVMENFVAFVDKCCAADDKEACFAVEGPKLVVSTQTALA

In the case of “[Fe3O(dicl)6(MeOH)3][FeCl4]·Hdicl·1.5MeOH∙H2O [Complex 3]”, the “OH% (competition % with DMSO for hydroxyl radical)” value in series [1] is recorded as 94.31 ± 0.78%. Further, in series [2], the “ABTS% (ABTS radical scavenging activity)” value is 87.72 ± 0.36%. Moreover, in series [3], the “ΔI/Io (%) quenching of BSA fluorescence” value is given as 97.6%; the “K albumin-binding constant (BSA)” value is on record as 5.44 (±0.05) × 10^5 M^−1; the “Kq albumin-quenching constant (BSA)” value is listed as 8.45 (±0.31) × 10^13 M^−1s^−1; the “relative BSA fluorescence emission intensity (I/Io, %) remaining” value stood at 2.4%. Besides, the solubility result in series [4] is on record as “Soluble in DMSO”.

For the substance [Fe3O(dicl)6(py)3]Cl∙py [Complex 2], in series [1], the “OH% (competition % with DMSO for hydroxyl radical)” value came to 87.89 ± 0.84%. Besides, in series [2], the “ABTS% (ABTS radical scavenging activity)” value worked out at 85.39 ± 0.52%. In series [3], the “ΔI/Io (%) quenching of BSA fluorescence” value is on record as 92.5%; the “K albumin-binding constant (BSA)” value is given as 6.09 (±0.31) × 10^5 M^−1; the “Kq albumin-quenching constant (BSA)” value was 8.70 (±0.43) × 10^13 M^−1s^−1; the “relative BSA fluorescence emission intensity (I/Io, %) remaining” value came to 7.5%. Moreover, the solubility result in series [4] is listed as “Soluble in DMSO”.
